Source: ChEMBL document CHEMBL4715734, “Discovery of the Potent and Selective M1 PAM-Agonist N-[(3R,4S)-3-Hydroxytetrahydro-2H-pyran-4-yl]-5-methyl-4-[4-(1,3-thiazol-4-yl)benzyl]pyridine-2-carboxamide (PF-06767832): Evaluation of Efficacy and Cholinergic Side Effects” (J Med Chem, 2016)

How the values were obtained:
[1] = Permeability of compound in MDCKII-LE cells; assay type: ADME, cell-based, Canis lupus familiaris; settings: dog, MDCK; read-out: permeability
[2] = test system: MDR1 (P-gp); assay: Efflux ratio of permeability across basolateral to apical side over apical to basolateral side in dog MDCK-MDR1 cells; assay type: ADME, cell-based, Canis lupus familiaris
[3] = target: T1, Muscarinic acetylcholine receptor M1 (Homo sapiens, UniProt P11229); assay: Positive allosteric modulation of human muscarinic M1 receptor stably expressed in CHO cells assessed as increase in Ach-induced intracellular calcium level preincubated for 10 mins followed by addition of Ach at EC20 concentration by Fluo-8AM dye based FLIPR TETRA method; assay type: functional, cell-based
T1 sequence (P11229 whole entry): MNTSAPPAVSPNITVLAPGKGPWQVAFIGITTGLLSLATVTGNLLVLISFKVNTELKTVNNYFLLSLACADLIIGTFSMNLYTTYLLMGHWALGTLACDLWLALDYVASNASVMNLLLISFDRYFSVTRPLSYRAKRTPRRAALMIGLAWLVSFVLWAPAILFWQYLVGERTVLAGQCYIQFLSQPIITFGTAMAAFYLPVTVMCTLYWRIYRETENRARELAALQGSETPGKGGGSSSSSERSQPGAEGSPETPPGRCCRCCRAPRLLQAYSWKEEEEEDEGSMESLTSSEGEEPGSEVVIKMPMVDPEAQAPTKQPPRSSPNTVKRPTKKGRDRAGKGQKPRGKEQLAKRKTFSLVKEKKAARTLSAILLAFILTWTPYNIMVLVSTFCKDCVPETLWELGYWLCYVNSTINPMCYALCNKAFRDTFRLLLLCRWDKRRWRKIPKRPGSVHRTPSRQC

[4] = Intrinsic clearance in human liver microsome; assay type: ADME; settings: liver microsomes, read-out: CLH
[5] = Ratio of AUC in mouse brain to plasma; assay type: ADME, cell-free; settings: brain and plasma, read-out: Ratio AUC
[6] = Fraction unbound in rat brain; assay type: ADME, cell-free
[7] = Ratio of AUC in C57BL/6 mouse brain to plasma at 1 mg/kg, sc; assay type: ADME, organism-based; settings: brain and plasma, read-out: Ratio AUC
[8] = Ratio of fAUC in C57BL/6 mouse brain to plasma; assay type: ADME, cell-free; settings: brain and plasma, read-out: Ratio AUC
[9] = Fraction unbound in C57BL/6 mouse plasma; assay type: ADME, cell-free

Work on `Cc1cc(F)c(C(=O)N[C@H]2CCOC[C@@H]2O)cc1Cc1ccc(-n2cccn2)cc1` yielded a Papp [1] of 20 ×10⁻⁶ cm/s, an efflux ratio [2] of 1.5 and an EC50 [3] of 115 nM. The CLint scaled [4] was under 10 mL/min/kg.

Compound `Cc1c(Cc2ccc(-c3cocn3)cc2)cc(C(=O)N[C@H]2CCCC[C@@H]2O)c(=O)n1C` has a Papp [1] of 26 ×10⁻⁶ cm/s, an efflux ratio [2] of 2.4 and an EC50 [3] of 38 nM. The CLint scaled [4] was 17 mL/min/kg and the Kp [5] was 0.03.

In the case of `Cc1cnc(C(=O)N[C@H]2CCOC[C@@H]2O)cc1Cc1ccc(-c2cocn2)cc1`, the Papp [1] is reported as 32 ×10⁻⁶ cm/s, the efflux ratio [2] is reported as 1.2 and the CLint scaled [4] is reported as under 8 mL/min/kg.

With `Cc1ccc(C(=O)N[C@H]2CCOC[C@@H]2O)cc1Cc1ccc(-n2cccn2)cc1` the Papp [1] was 16 ×10⁻⁶ cm/s, the efflux ratio [2] was 2.2 and the EC50 [3] was 208 nM. For the same compound, the CLint scaled [4] was under 8 mL/min/kg.

`Cc1cc(N)c(C(=O)N[C@H]2CCOC[C@@H]2O)cc1Cc1ccc(-n2cccn2)cc1` (racemic) showed a Papp [1] of 19 ×10⁻⁶ cm/s, an efflux ratio [2] of 1.9 and an EC50 [3] of over 9000 nM. It also gave a CLint scaled [4] of 23 mL/min/kg.

`O=C(N[C@H]1CCOC[C@@H]1O)c1cc(Cc2ccc(-n3cccn3)cc2)ccn1` gave a Papp [1] of 24 ×10⁻⁶ cm/s, an efflux ratio [2] of 1.8 and an EC50 [3] of over 9000 nM. For the same compound, the CLint scaled [4] was under 8 mL/min/kg.

Work on `Cc1c(Cc2ccc(-c3ccn(C)n3)cc2)cc(C(=O)N[C@H]2CCCC[C@@H]2O)c(=O)n1C` yielded a Papp [1] of 13 ×10⁻⁶ cm/s, an efflux ratio [2] of 3.1 and an EC50 [3] of 102 nM. The CLint scaled [4] was 13 mL/min/kg.

`Cc1c(Cc2ccc(-n3cccn3)cc2)cc(C(=O)N[C@H]2CCCC[C@@H]2O)c(=O)n1C` showed a Papp [1] of 23 ×10⁻⁶ cm/s, an efflux ratio [2] of 2.7 and an EC50 [3] of 29 nM. It also gave a CLint scaled [4] of 20 mL/min/kg and a Kp [5] of 0.05.

For `Cc1c(Cc2ccc(-c3cscn3)cc2)cc(C(=O)N[C@H]2CCCC[C@@H]2O)c(=O)n1C`, the Papp [1] was 17 ×10⁻⁶ cm/s, the efflux ratio [2] was 2.4 and the EC50 [3] was 166 nM. For the same compound, the CLint scaled [4] was 26 mL/min/kg.

Work on `Cc1c(Cc2ccc(-n3cccn3)cc2)cc(C(=O)N[C@H]2CCOC[C@@H]2O)c(=O)n1C` yielded a Papp [1] of 20 ×10⁻⁶ cm/s, an efflux ratio [2] of over 5.3 and an EC50 [3] of 20 nM. It also gave a CLint scaled [4] of under 8 mL/min/kg.

Work on `Cc1cnc(C(=O)N[C@H]2CCOC[C@@H]2O)cc1Cc1ccc(-n2cccn2)cc1` yielded a Fu [6] of 9%, a Papp [1] of 21 ×10⁻⁶ cm/s and an efflux ratio [2] of 1.4. For the same compound, the Kp [7] was 0.2, the Kp uu [8] was 0.23 and the CLint scaled [4] was under 8 mL/min/kg. For the same compound, the Fu [9] was 7.4%.

`CO[C@@H]1CCN(c2ccc(Cc3cc(C(=O)N[C@H]4CCCC[C@@H]4O)c(=O)n(C)c3C)cc2)C1` gave a Papp [1] of 23 ×10⁻⁶ cm/s, an efflux ratio [2] of 2.2 and an EC50 [3] of 1690 nM. For the same compound, the CLint scaled [4] was 22 mL/min/kg.

Compound `Cc1ncc(C(=O)N[C@H]2CCOC[C@@H]2O)cc1Cc1ccc(-n2cccn2)cc1` has a Papp [1] of 8 ×10⁻⁶ cm/s, an efflux ratio [2] of 6.3 and an EC50 [3] of 392 nM. For the same compound, the CLint scaled [4] was under 8 mL/min/kg.

`Cc1cnc(C(=O)N[C@H]2CCCC[C@@H]2O)cc1Cc1ccc(-n2cccn2)cc1` (single isomer, unassigned) showed a Papp [1] of 19 ×10⁻⁶ cm/s, an efflux ratio [2] of 1.5 and a CLint scaled [4] of 20 mL/min/kg.
